From patent US7781436B2 (Hoffmann-La Roche Inc., priority 2005, dated 2010)
Counter-ions that a name gives are not always drawn.

target: T1, human V1a receptor (Homo sapiens, UniProt P37288); test: human V1a receptor binding (3H-Vasopressin SPA, membranes of transfected HEK293 cells); conditions: not given
T1 construct: expressed in transfected cells; host or cells: HEK293 cells, transiently transfected; membranes prepared
Description: The human V1a receptor was cloned by RT-PCR from total human liver RNA. The coding sequence was subcloned in an expression vector after sequencing to confirm the identity of the amplified sequence. […] Cell membranes were prepared from HEK293 cells transiently transfected with the expression vector and grown in 20 liter fermenters with the following protocol.
50 g of cells are resuspended in 30 ml freshly prepared ice cold Lysis buffer (50 mM HEPES, 1 mM EDTA, 10 mM MgCl2 adjusted to pH=7.4+ complete cocktail of protease inhibitor (Roche Diagnostics)). Homogenized with Polytron for 1 min and sonicated on ice for 2×2 minutes at 80% intensity (Vibracell sonicator). The preparation is centrifuged 20 min at 500 g at 4° C., the pellet is discarded and the supernatant centrifuged 1 hour at 43,000 g at 4° C. (19'000 rpm). The pellet is resuspended in 12.5 ml Lysis buffer+12.5 ml Sucrose 20% and homogenized using a Polytron for 1-2 min. The protein concentration is determined by the Bradford method, and aliquots are stored at −80° C. until use. For binding studies 60 mg Yttrium silicate SPA beads (Amersham) are mixed with an aliquot of membrane in binding buffer (50 mM Tris, 120 mM NaCl, 5 mM KCl, 2 mM CaCl2, 10 mM MgCl2) for 15 minutes with mixing. 50 ul of bead/membrane mixture is then added to each well of a 96 well plate, followed by 50 ul of 4 nM 3H-Vasopressin (American Radiolabeled Chemicals). For total binding measurement 100 ul of binding buffer are added to the respective wells, for non-specific binding 100 ul of […] cold vasopressin and for compound testing 100 ul of a serial dilution of each compound in 2% DMSO. The plate is incubated 1 h at room temperature, centrifuged 1 min at 1000 g and counted on a Packard Top-Count. Non-specific binding counts are subtracted from each well, and data is normalized to the maximum specific binding set at 100%. To calculate an IC 50 the curve is fitted using a non-linear regression model (XLfit) and the Ki is calculated using the Cheng-Prussoff equation.

T1 sequence (P37288 whole entry): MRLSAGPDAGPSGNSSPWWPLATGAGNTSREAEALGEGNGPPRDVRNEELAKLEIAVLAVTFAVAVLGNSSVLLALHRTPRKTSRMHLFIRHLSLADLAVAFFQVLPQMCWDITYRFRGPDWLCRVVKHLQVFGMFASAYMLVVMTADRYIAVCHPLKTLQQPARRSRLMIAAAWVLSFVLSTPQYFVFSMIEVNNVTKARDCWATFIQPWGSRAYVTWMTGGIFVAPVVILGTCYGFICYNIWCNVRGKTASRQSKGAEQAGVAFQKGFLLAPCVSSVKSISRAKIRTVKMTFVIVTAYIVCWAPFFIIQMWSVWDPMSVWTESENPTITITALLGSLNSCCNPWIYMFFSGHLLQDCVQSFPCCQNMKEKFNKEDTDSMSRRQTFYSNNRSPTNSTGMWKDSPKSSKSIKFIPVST

Compound	Ki [nM]
COc1cccc(OC)c1C1CCN(C(=O)c2cn(Cc3ccccn3)c3cc(Cl)ccc23)CC1 [Example 47, (6-Chloro-1-pyridin-2-ylmethyl-1H-indol-3-yl)-[4-(2,6-dimethoxy-phenyl)-piperidin-1-yl]-methanone]	4
COc1cccc(OC)c1C1CCN(C(=O)c2cn(CC(N)=O)c3cc(Cl)ccc23)CC1 [Example 81, 2-{6-Chloro-3-[4-(2,6-dimethoxy-phenyl)-piperidine-1-carbonyl]-indol-1-yl}-acetamide]	13

same assay, conditions: displacement of 4 nM 3H-Vasopressin, HEK293 cell membranes, Ki by Cheng-Prussoff from IC50; read-out: Ki

Compound	Ki [nM]
CNC(=O)Cn1cc(C(=O)N2CCC(c3c(OC)cccc3OC)CC2)c2ccc(Cl)cc21 [Example 82, 2-{6-Chloro-3-[4-(2,6-dimethoxy-phenyl)-piperidine-1-carbonyl]-indol-1-yl}-N-methyl-acetamide]	2
CN(C)C(=O)Cn1cc(C(=O)N2CCC(c3cccc4c3OCC4)CC2)c2ccc(Cl)cc21 [Example 72, 2-{6-Chloro-3-[4-(2,3-dihydro-benzofuran-7-yl)-piperidine-1-carbonyl]-indol-1-yl}-N,N-dimethyl-acetamide]	3
CNCCn1cc(C(=O)N2CCC(c3cccc4c3OCC4)CC2)c2ccc(Cl)cc21 [Example 107, [6-Chloro-1-(2-methylamino-ethyl)-1H-indol-3-yl]-[4-(2,3-dihydro-benzofuran-7-yl)-piperidin-1-yl]-methanone]	12
COc1ccccc1C1CCN(C(=O)c2cn(CC(=O)N(C)C)c3cc(Cl)ccc23)CC1 [Example 57, 2-{6-Chloro-3-[4-(2-methoxy-phenyl)-piperidine-1-carbonyl]-indol-1-yl}-N,N-dimethyl-acetamide]	2
C[C@H](N)Cn1cc(C(=O)N2CCN(c3ccccc3F)CC2)c2ccc(Cl)cc21 [Example 198, [1-((S)-2-Amino-propyl)-6-chloro-1H-indol-3-yl]-[4-(2-fluoro-phenyl)-piperazin-1-yl]-methanone]	20
O=C(Cn1cc(C(=O)N2CCC(c3ccccc3F)CC2)c2ccc(Cl)cc21)N1CCNCC1 [Example 118, 2-{6-Chloro-3-[4-(2-fluoro-phenyl)-piperidine-1-carbonyl]-indol-1-yl}-1-piperazin-1-yl-ethanone hydrochloride]	12
CNC(=O)Cn1cc(C(=O)N2CCC(c3cccc4c3OCC4)CC2)c2ccc(Cl)cc21 [Example 76, 2-{6-Chloro-3-[4-(2,3-dihydro-benzofuran-7-yl)-piperidine-1-carbonyl]-indol-1-yl}-N-methyl-acetamide]	8
